Results from US5314887A, “2-amino-1, 4-dihydropyridine derivatives with calcium agonist and alpha -antagonist activity” (The Du Pont Merck Pharmaceutical Company, priority 1992, dated 1994).

Columns and labels:
[1] = target: T1, Ca^2+ channel (rat cardiac microsomes) (Rattus norvegicus, UniProt P22002); experiment: [3H]-Nitrendipine binding assay (affinity for calcium channels); details: 0.5 nM [3H]-nitrendipine, Tris buffer, 60 minutes at 25°
T1 construct: The reaction mixture contained rat cardiac microsomes; from tissue; host or cells: rat heart (cardiac microsomes)
Protocol: [^3 H]-Nitrendipine binding assay was carried out according to the method described by G. T. Bolger, et al., Biochem. Biophys. Res. Comm. 104, 1604-1609 (1982). The reaction mixture contained rat cardiac microsomes (source of Ca^2+ channels), 0.5 nM [^3 H]-nitrendipinewith or without potential displacer in Tris buffer. The mixture was incubated for 60 minutes at 25° and subsequently terminated by rapid filtration through a glass fiber-filter. Membrane-bound [^3 H]-nitrendipine trapped in the filter was quantitated by scintillation counting. The inhibitory concentration (IC50) of potential displacer which gives 50% displacement of the total specifically bound [^3 H]-nitrendipine is presented as a measure of the affinity of such compound for the Ca^2+ channel.

[2] = target: alpha1-adrenoceptor (rat brain membranes); experiment: [3H]-Prazosin binding assay (affinity for alpha1-adrenoceptors); details: 0.2 nM [3H]-prazosin, partially purified rat brain membranes, Tris buffer, 60 minutes at 25°
Protocol: The [^3 H]-prazosin binding assay was carried out according to the method described by Timmermans, P. B. M. W. M., Schoop, A. M. C., and Van Zwieten, P. A., Biochem. Pharmacol. 31, 899-905 (1982). The reaction mixture contained partially purified rat brain membranes (source of alpha1 -adrenoceptors), 0.2 nM [^3 H]-prazosin with or without potential displacer in Tris buffer. The mixture was incubated for 60 minutes at 25° and subsequently terminated by rapid filtration through glass fiber-filter. Receptor-bound [^3 H]-prazosin trapped in the filter was quantitated by scintillation counting. The inhibitory concentration (IC50) of potential displacer which gives 50% displacement of the total specifically bound [^3 H]-prazosin is presented as a measure of the affinity of such compound for the alpha1 -adrenoceptor.

guinea pig left atria = experiment: Positive inotropic effect in guinea pig left atria; details: Cavia porcellus; for EC50: left atria paced at 2 Hz, Krebs bicarbonate, 37°, cumulative addition to maximum 10^-4, read-out: EC50 = concentration that increases DT (developed tension) by 50% above the control DT; for Emax: relative to Bay K8644, expressed in percent, read-out: Intrinsic Activity: ratio of the maximum effect of the test compound to that of Bay K8644
Protocol: Guinea pigs are killed by cervical dislocation. The left atria are removed and mounted at 1 gm resting tension in tissue baths containing oxygenated Krebs bicarbonate solution which is kept at 37°. The left atria are electrically paced at 2 Hz with square wave pulses of 1 msec duration. The voltage is set at 1.5×threshold level.
After a one hour equilibration period, control values for developed tension (DT, gm) are recorded. Test compounds are then added to the baths, in a cumulative manner to a maximum concentration of 10^-4, to obtain a concentration-response curve. Treatment values of DT are obtained after the drug effect has reached a plateau and the exposure time for each concentration is 5-8 minutes. Percent change of the treatment value from the control value is calculated at each concentration of the test compound.
^a EC50 (M) = concentration that increases DT by 50% above the
^b Intrinsic Activity is a ratio of the maximum effect of the test
compound to that of Bay K8644 and expressed in percent.

[3] = system: influx of calcium ions into cells; details: background statement; cited from earlier work

T1 sequence (P22002 whole entry, other chains not shown): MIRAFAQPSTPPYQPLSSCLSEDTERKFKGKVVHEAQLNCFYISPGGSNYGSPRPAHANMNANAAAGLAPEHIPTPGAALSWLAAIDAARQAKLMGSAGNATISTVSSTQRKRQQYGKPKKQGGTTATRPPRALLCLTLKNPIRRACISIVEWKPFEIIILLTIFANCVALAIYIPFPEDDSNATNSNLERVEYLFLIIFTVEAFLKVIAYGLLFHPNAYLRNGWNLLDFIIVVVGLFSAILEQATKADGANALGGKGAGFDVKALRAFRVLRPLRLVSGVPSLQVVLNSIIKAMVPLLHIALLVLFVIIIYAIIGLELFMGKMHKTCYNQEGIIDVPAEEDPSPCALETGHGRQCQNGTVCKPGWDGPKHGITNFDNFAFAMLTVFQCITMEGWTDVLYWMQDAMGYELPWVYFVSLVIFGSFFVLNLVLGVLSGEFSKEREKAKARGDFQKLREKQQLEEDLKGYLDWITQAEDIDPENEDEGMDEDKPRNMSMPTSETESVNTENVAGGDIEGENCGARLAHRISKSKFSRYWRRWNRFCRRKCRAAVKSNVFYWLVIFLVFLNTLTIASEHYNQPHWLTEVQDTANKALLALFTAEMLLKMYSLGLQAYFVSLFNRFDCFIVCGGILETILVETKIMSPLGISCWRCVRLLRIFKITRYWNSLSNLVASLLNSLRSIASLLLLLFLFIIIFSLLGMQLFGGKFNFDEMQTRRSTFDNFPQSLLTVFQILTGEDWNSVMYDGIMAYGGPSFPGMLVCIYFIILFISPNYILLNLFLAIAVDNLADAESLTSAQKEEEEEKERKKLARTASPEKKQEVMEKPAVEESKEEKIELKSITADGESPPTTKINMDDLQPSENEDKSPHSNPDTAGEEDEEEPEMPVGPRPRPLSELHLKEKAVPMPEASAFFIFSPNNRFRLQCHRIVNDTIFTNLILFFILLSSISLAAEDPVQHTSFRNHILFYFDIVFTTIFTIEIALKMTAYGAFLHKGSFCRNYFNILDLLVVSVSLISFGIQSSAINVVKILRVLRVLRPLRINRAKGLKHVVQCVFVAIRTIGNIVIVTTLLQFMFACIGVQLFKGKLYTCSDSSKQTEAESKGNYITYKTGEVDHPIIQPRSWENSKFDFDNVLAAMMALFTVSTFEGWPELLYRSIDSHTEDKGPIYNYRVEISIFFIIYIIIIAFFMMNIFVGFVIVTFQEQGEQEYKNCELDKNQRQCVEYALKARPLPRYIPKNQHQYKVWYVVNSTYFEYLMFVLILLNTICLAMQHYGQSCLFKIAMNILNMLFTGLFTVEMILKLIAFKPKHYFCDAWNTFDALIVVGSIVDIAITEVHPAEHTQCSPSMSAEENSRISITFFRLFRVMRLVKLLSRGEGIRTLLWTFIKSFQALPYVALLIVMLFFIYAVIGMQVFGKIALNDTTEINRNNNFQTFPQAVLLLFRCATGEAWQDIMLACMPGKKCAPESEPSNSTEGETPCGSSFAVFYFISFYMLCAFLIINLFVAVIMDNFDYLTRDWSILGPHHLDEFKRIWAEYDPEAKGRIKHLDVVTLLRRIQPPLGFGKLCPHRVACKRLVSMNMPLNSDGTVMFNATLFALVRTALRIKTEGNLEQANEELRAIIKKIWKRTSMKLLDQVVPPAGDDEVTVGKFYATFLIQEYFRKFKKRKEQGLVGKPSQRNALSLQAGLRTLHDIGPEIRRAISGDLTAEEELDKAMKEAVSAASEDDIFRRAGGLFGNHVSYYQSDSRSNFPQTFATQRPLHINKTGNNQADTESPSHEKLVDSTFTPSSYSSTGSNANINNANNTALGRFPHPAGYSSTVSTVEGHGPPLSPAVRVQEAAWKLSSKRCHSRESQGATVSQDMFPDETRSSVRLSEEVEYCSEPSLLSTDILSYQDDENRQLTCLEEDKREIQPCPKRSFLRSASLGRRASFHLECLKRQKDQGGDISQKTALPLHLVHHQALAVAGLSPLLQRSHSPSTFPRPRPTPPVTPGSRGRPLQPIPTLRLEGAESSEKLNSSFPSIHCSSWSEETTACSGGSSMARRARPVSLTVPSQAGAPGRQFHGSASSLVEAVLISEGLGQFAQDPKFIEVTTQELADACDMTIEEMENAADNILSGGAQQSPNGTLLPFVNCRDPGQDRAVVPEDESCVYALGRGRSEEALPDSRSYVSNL
T1 sequence (P54290 25-944 partner limits assumed, other chains not shown): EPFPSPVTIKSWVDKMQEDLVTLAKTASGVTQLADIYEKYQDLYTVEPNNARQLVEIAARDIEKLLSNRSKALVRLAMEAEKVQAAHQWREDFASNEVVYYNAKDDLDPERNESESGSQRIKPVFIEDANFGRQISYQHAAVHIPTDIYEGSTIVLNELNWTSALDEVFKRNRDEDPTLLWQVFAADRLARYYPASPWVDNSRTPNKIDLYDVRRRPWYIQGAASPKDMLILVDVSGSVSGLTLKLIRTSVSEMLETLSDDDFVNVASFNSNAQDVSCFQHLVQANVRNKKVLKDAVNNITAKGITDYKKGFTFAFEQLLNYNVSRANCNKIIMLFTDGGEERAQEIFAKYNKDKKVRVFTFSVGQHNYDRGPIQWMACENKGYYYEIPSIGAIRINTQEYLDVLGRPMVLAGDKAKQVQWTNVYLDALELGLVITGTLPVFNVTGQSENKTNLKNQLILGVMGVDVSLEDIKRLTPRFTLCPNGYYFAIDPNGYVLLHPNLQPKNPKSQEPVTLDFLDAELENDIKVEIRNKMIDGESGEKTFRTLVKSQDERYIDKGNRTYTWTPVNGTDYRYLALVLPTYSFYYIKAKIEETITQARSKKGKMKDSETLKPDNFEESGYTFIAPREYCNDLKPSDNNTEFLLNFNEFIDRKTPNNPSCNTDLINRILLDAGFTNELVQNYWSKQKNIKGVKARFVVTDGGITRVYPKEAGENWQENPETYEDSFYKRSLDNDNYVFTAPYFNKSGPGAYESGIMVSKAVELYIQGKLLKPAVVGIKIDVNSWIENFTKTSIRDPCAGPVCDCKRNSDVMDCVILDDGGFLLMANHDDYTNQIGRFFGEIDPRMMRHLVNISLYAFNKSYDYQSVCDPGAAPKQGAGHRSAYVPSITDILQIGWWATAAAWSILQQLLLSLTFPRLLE
T1 sequence (P54290 945-1091 partner limits assumed, other chains not shown): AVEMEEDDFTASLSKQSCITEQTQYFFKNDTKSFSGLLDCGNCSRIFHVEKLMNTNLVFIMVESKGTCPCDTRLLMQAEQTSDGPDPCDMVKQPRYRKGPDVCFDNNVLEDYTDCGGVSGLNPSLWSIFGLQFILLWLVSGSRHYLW

SMILES	IC50 [1] [nM]	IC50 [2] [nM]	EC50 (guinea pig left atria) [nM]	Emax (guinea pig left atria) [%]	effect on calcium influx, inotropic and vasoconstrictor effects [3]	coronary vasoconstricting properties [3]	potency as a calcium agonist relative to CGP 28392 [3]
COC(=O)C1=C(N)NC(C)=C([N+](=O)[O-])C1c1ccccc1SCCCCN1CCN(c2ccccc2OC)CC1 (stereo not shown) [Example 1, 2-Amino-1,4-dihydro-4-(2-{4-[4-(2-methoxyphenyl)-1-piperazinyl]-butylthio}phenyl)-6-methyl-5-nitro-3-pyridinecarboxylic acid methyl ester]	520	60	550	166	–	–	–
COC(=O)C1=C(N)NC(C)=C([N+](=O)[O-])C1c1ccccc1OCCCCCN1CCN(c2ncccn2)CC1 (stereo not shown) [Example 3, 2-Amino-1,4-dihydro-4-(2-{5-[4-(2-pyrimidinyl)-1-piperazinyl]-pentyloxy}phenyl)-6-methyl-5-nitro-3-pyridinecarboxylic acid methyl ester]	930	160	1000	170	–	–	–
COC(=O)C1=C(N)NC(C)=C([N+](=O)[O-])C1c1ccccc1[S+]([O-])CCCCN1CCN(c2ncccn2)CC1 (stereo not shown) [Example 8, 2-Amino-1,4-dihydro-4-(2-{4-[4-(2-pyrimidinyl)-1-piperazinyl]-butylsulfinyl}phenyl)-6-methyl-5-nitro-3-pyridinecarboxylic acid methyl ester]	2300	2400	500	254	–	–	–
CCOC(=O)C1=C(C)NC2=C(C(=O)OC2)C1c1ccccc1OC(F)F (stereo not shown) [CGP 28392]	–	–	–	–	promote an influx of calcium ions into cells, thereby producing positive inotropic and vasoconstrictor effects	–	–
COC(=O)C1=C(N)NC(C)=C([N+](=O)[O-])C1c1ccccc1S(=O)(=O)CCCCN1CCN(c2ccccc2OC)CC1 (stereo not shown) [Example 5, 2-Amino-1,4-dihydro-4-(2-{4-[4-(2-methoxyphenyl)-1-piperazinyl]-butylsulfonyl}phenyl)-6-methyl-5-nitro-3-pyridinecarboxylic acid methyl ester]	390	60	1500	119	–	–	–
COC(=O)C1=C(N)NC(C)=C([N+](=O)[O-])C1c1ccccc1OCCCCCN1CCN(c2ccccc2OC)CC1 (stereo not shown) [Example 4, 2-Amino-1,4-dihydro-4-(2-{5-[4-(2-methoxyphenyl)-1-piperazinyl]-pentyloxy}phenyl)-6-methyl-5-nitro-3-pyridinecarboxylic acid methyl ester]	1600	3400	1600	128	–	–	–
COC(=O)C1=C(N)NC(C)=C([N+](=O)[O-])C1c1ccccc1[S+]([O-])CCCCN1CCN(c2ccccc2OC)CC1 (stereo not shown) [Example 2, 2-Amino-1,4-dihydro-4-(2-{4-[4-(2-methoxyphenyl)-1-piperazinyl]-butylsulfinyl}phenyl)-6-methyl-5-nitro-3-pyridinecarboxylic acid methyl ester]	1700	11	5700	90	–	–	–
COC(=O)C1=C(N)NC(C)=C([N+](=O)[O-])C1c1ccccc1SCCCCN1CCC(C(=O)c2ccc(F)cc2)CC1 (stereo not shown) [Example 7]	150	150	9600	112	–	–	–
COC(=O)C1=C(N)NC(C)=C([N+](=O)[O-])C1c1ccccc1SCCCCN1CCN(c2ncccn2)CC1 (stereo not shown) [Example 6]	400	4500	47	113	–	–	–
COC(=O)C1=C(C)NC(C)=C([N+](=O)[O-])C1c1ccccc1C(F)(F)F (stereo not shown) [Bay K8644]	–	–	150	100	promote an influx of calcium ions into cells, thereby producing positive inotropic and vasoconstrictor effects	coronary vasoconstricting properties	more than ten times as potent as CGP 28392

Second part, led by results:

IC50 [1] [nM]	IC50 [2] [nM]	EC50 (guinea pig left atria) [nM]	SMILES	Emax (guinea pig left atria) [%]	effect on calcium influx, inotropic and vasoconstrictor effects [3]	coronary vasoconstricting properties [3]	potency as a calcium agonist relative to CGP 28392 [3]
2400	150	10000	COC(=O)C1=C(N)NC(C)=C([N+](=O)[O-])C1c1ccccc1[S+]([O-])CCCCN1CCC(C(=O)c2ccc(F)cc2)CC1 (stereo not shown) [Example 9]	56	–	–	–
620	52	> 100000	COC(=O)C1=C(N)NC(C)=C([N+](=O)[O-])C1c1ccccc1[S+]([O-])CCCN1CCN(c2ccccc2OC)CC1 (stereo not shown) [Example 12]	35	–	–	–
1300	25	5200	COC(=O)C1=C(N)NC(C)=C([N+](=O)[O-])C1c1ccccc1[S+]([O-])CCCCCN1CCN(c2ccccc2OC)CC1 (stereo not shown) [Example 13]	119	–	–	–
300	80	3500	COC(=O)C1=C(N)NC(C)=C([N+](=O)[O-])C1c1ccccc1SCCCN1CCN(c2ccccc2OC)CC1 (stereo not shown) [Example 10]	115	–	–	–
240	42	2400	COC(=O)C1=C(N)NC(C)=C([N+](=O)[O-])C1c1ccccc1SCCCCCN1CCN(c2ccccc2OC)CC1 (stereo not shown) [Example 11]	112	–	–	–
